Source: the supplement of paper PMC10307832

Tests used:
Experiment in all cases: relative viability (nuclei count vs DMSO), 5 days (fraction); higher = more cells survive
[1] = compound: Cn1cc(-c2cnc3ccc4ccc(CS(=O)(=O)NCc5ccccn5)cc4c(=O)c3c2)cn1 [MK-8033] + O=C(CCCCCCC(=O)Nc1ccccc1)NO [Vorinostat] (partner 1 µM)
In short: (§1)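 Values are medians from duplicate plates. Each reflects relative viability, defined as the nuclei count of treated wells over that of vehicle wells. Lung cancer cell lines in 1536-well plates were pin-tool dosed one day after seeding with one drug alone or with a fixed anchor-drug dose plus five library-drug doses (not always all listed) in √10 steps, then fixed, stained and imaged at 4× after 5 days.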

[2] = compound: CCc1c2c(nc3ccc(OC(=O)N4CCC(N5CCCCC5)CC4)cc13)-c1cc3c(c(=O)n1C2)COC(=O)[C@]3(O)CC [Irinotecan] + Cc1cc(Nc2cc(N3CCN(C)CC3)nc(Sc3ccc(NC(=O)C4CC4)cc3)n2)n[nH]1 [Tozasertib] (partner 0.1 µM)
In short: as §1

[3] = compound: CCc1c2c(nc3ccc(OC(=O)N4CCC(N5CCCCC5)CC4)cc13)-c1cc3c(c(=O)n1C2)COC(=O)[C@]3(O)CC [Irinotecan] + CCNC(=O)c1noc(-c2cc(C(C)C)c(O)cc2O)c1-c1ccc(CN2CCOCC2)cc1 [Luminespib] (partner 0.01 µM)
In short: as §1

[4] = compound: CCc1c2c(nc3ccc(OC(=O)N4CCC(N5CCCCC5)CC4)cc13)-c1cc3c(c(=O)n1C2)COC(=O)[C@]3(O)CC [Irinotecan] + Cc1nc(Nc2ncc(C(=O)Nc3c(C)cccc3Cl)s2)cc(N2CCN(CCO)CC2)n1 [Dasatinib] (partner 0.075 µM)
In short: as §1

UMC-11 gave a relative viability ([1]; first compound 0.02 µM) of 0.32, a relative viability ([1]; first compound 0.06325 µM) of 0.345 and a relative viability ([1]; first compound 0.2 µM) of 0.46. For the same cell line, the relative viability ([1]; first compound 0.6325 µM) was 0.419, the relative viability ([1]; first compound 2 µM) was 0.409 and the relative viability ([2]; first compound 0.6325 µM) was 0.194. For the same cell line, the relative viability ([2]; first compound 2 µM) was 0.25, the relative viability ([2]; first compound 6.325 µM) was 0.268 and the relative viability ([2]; first compound 20 µM) was 0.247. For the same cell line, the relative viability ([3]; first compound 0.6325 µM) was 0.569, the relative viability ([3]; first compound 2 µM) was 0.491 and the relative viability ([3]; first compound 6.325 µM) was 0.383. For the same cell line, the relative viability ([3]; first compound 20 µM) was 0.192, the relative viability ([4]; first compound 0.6325 µM) was 0.422 and the relative viability ([4]; first compound 2 µM) was 0.372. The relative viability ([4]; first compound 6.325 µM) was 0.232 and the relative viability ([4]; first compound 20 µM) was 0.104.
